Data from patent publication US20260240884A1, “MIXTURE OF HUMAN MILK OLIGOSACCHARIDES” (N.V. Nutricia, priority 2023, published 2026).

Columns and labels:
[1] = tested on: RSV-A2; assay: Pre-incubation of HEp-2 cells with HMOs before RSV-A2 infection (Viral ToxGlo); format: cell-based, respiratory syncytial virus
Description: To assess the effect of mixtures of HMOs on a negative-sense single-stranded RNA virus in vitro infection assays were performed with RSV-A2 strain. Pre-incubation of either HEp-2 cells or RSV-A2 with HMOs prior to infection was compared to assess anti-viral activity. Hep2 cells were exposed to the following conditions as discussed in more detail separately: • I. Pre-incubation of HEp-2 cells with HMOs before viral infection. • II.
HEp-2 cells were seeded in white [Greiner 655098]96 well plates in assay medium (EMEM [Sigma M2279]) supplemented with 2% heat-inactivated fetal bovine serum (HI-FBS) [Gibco 10500064], 1% Penicillin/streptomycin [Gibco 15140122] and 1% L-glutamine [Gibco 25030024] and incubated at 37° C. and 5% CO2 for 5 hours.
HMO mixtures were prepared in sterile water and ribavirin (compound that blocks viral RNA synthesis and viral mRNA capping) was prepared in 1% DMSO at 10× test concentration in a round-bottom 96-well plate [Corning 3788], then serially diluted 2-fold.
The following compounds were assessed for their capacity to inhibit RSV-A2 viral infection: • 2′-FL • A mixture of GOS:FOS at a 9:1 weight ratio • Total HMOs • Mixture of 5 HMOs • Mixture of 19 HMOs • 6′-SL
Test compounds were subsequently transferred to the HEp-2 cell plates. Additional assay medium was added to ensure a final HMO concentration range of 0.13-16 mg/mL. Cell plates were incubated for 24 hours at 37° cand 5% CO2.
After 24-hour incubation with the test conditions RSV-A2 was added to the HMO containing HEp-2 cell plates to achieve a final multiplicity of infection [MOI] of 0.5. Cell plates were incubated for a further 72 hours at 37° C. and 5% CO2.
Viral ToxGlo™ [Promega G8943] was added to the plates to assess cell metabolism following viral infection and HMO treatment. After 20 minutes incubation, luminescence of each plate was measured on a spectrophotometer. Data were analysed using GraphPad Prism software to determine the concentration effective in producing 50% of viral inhibition expressed as ECso values for ribavirin and HMOs where relevant.

[2] = tested on: RSV-A2; assay: Pre-incubation of RSV-A2 with HMOs prior to infection of HEp-2 cells (Viral ToxGlo); format: cell-based, respiratory syncytial virus
[3] = tested on: SARS-CoV2 WA1; format: cell-based; details: virus pre-incubated 1 h with 0.5-16 mg/mL; MOI 0.1; 48 h; FIG. 1
[4] = tested on: IL-8 secretion of HT-29 cells; assay: IL-8 secretion and viability of HT-29 cells pre-incubated with test compounds and challenged with Lyovec-complexed Poly I:C; format: cell-based, Human
[5] = tested on: rotavirus (RV) strain SA11; assay: Caco-2 epithelial barrier model infected with rotavirus SA11 (TEER, lucifer yellow permeability); format: cell-based; details: Caco-2, 5% (50 mg/ml) for 4 h before SA11 MOI 0.1; 20 h p.i.; FIG. 2A

Row | Compound | Maximum viral inhibition (%) ([1]; HEp-2 cells pre-incubated 24 h, 0.13-16 mg/mL, RSV-A2 MOI 0.5, 72 h) | Test concentration maximum viral inhibition ([1]; HEp-2 cells pre-incubated 24 h, concentration at which the maximum inhibition was seen) | anti-viral activity, replicate 1 (in words) ([1]; HEp-2 pre-incubation, replicate 1 (67% infection)) | Maximum viral inhibition (%) ([2]; RSV-A2 pre-incubated 1 h, 0.13-16 mg/mL, MOI 0.5, 72 h) | Test concentration maximum viral inhibition ([2]; RSV-A2 pre-incubated 1 h, concentration at which the maximum inhibition was seen) | antiviral activity (in words) ([2]; RSV-A2 pre-incubated prior to infection, both replicates (94-95% infection)) | viral neutralization efficacy (viral RNA by RT-qPCR) [3] | Mean IL-8 secretion ([4]; 0.1% + Poly I:C, Poly I:C alone 21799.28) | Mean IL-8 secretion ([4]; 0.1%, no Poly I:C, Medium 359.54) | prevention of rotavirus induced decrease in TEER [5]
1 | CC(=O)N[C@H]1[C@H]([C@H](O)[C@H](O)CO)O[C@@](OC[C@H]2O[C@@H](O[C@H]3[C@H](O)[C@@H](O)[C@H](O)O[C@@H]3CO)[C@H](O)[C@@H](O)[C@H]2O)(C(=O)O)C[C@@H]1O [6′-SL, 6′-sialyllactose] | 2.6% | 8 mg/mL | no anti-viral activity | −0.58% | 1 mg/mL | no anti-viral activity | did not show viral neutralization efficacy | – | – | –
2 | O=C[C@H](O)[C@@H](O)[C@H](O[C@@H]1O[C@H](CO)[C@@H](O)[C@H](O)[C@H]1O)[C@H](O)CO [Cellobiose, cellobiose] | – | – | – | – | – | – | – | 20023.80 pg/mL | 277.94 pg/mL | no effect
